Assay results reported in US12559506B2, “Indazole based compounds and associated methods of use” (Arvinas Operations, Inc., priority 2021, dated 2026).
Read-outs that look alike come from different tables or passages of the source.

Tests used:
wildtype LRRK2 = molecular target: T1, wildtype LRRK2 (Homo sapiens, UniProt Q5S007); assay: LRRK2 degradation assay, HiBit-tagged wildtype LRRK2 expressed from plasmid in HEK293 cells (Nano-Glo Dual-Luciferase); format: cell-based; conditions: 24 hours; for Dmax: read-out: **WT Dmax (%); for DC50: read-out: *WT DC50
T1 construct: expressed in transfected cells; host or cells: HEK293 (ATCC CRL-1573), transient transfection, mammalian expression vector with ubiquitin promoter
T1 sequence (Q5S007 whole entry): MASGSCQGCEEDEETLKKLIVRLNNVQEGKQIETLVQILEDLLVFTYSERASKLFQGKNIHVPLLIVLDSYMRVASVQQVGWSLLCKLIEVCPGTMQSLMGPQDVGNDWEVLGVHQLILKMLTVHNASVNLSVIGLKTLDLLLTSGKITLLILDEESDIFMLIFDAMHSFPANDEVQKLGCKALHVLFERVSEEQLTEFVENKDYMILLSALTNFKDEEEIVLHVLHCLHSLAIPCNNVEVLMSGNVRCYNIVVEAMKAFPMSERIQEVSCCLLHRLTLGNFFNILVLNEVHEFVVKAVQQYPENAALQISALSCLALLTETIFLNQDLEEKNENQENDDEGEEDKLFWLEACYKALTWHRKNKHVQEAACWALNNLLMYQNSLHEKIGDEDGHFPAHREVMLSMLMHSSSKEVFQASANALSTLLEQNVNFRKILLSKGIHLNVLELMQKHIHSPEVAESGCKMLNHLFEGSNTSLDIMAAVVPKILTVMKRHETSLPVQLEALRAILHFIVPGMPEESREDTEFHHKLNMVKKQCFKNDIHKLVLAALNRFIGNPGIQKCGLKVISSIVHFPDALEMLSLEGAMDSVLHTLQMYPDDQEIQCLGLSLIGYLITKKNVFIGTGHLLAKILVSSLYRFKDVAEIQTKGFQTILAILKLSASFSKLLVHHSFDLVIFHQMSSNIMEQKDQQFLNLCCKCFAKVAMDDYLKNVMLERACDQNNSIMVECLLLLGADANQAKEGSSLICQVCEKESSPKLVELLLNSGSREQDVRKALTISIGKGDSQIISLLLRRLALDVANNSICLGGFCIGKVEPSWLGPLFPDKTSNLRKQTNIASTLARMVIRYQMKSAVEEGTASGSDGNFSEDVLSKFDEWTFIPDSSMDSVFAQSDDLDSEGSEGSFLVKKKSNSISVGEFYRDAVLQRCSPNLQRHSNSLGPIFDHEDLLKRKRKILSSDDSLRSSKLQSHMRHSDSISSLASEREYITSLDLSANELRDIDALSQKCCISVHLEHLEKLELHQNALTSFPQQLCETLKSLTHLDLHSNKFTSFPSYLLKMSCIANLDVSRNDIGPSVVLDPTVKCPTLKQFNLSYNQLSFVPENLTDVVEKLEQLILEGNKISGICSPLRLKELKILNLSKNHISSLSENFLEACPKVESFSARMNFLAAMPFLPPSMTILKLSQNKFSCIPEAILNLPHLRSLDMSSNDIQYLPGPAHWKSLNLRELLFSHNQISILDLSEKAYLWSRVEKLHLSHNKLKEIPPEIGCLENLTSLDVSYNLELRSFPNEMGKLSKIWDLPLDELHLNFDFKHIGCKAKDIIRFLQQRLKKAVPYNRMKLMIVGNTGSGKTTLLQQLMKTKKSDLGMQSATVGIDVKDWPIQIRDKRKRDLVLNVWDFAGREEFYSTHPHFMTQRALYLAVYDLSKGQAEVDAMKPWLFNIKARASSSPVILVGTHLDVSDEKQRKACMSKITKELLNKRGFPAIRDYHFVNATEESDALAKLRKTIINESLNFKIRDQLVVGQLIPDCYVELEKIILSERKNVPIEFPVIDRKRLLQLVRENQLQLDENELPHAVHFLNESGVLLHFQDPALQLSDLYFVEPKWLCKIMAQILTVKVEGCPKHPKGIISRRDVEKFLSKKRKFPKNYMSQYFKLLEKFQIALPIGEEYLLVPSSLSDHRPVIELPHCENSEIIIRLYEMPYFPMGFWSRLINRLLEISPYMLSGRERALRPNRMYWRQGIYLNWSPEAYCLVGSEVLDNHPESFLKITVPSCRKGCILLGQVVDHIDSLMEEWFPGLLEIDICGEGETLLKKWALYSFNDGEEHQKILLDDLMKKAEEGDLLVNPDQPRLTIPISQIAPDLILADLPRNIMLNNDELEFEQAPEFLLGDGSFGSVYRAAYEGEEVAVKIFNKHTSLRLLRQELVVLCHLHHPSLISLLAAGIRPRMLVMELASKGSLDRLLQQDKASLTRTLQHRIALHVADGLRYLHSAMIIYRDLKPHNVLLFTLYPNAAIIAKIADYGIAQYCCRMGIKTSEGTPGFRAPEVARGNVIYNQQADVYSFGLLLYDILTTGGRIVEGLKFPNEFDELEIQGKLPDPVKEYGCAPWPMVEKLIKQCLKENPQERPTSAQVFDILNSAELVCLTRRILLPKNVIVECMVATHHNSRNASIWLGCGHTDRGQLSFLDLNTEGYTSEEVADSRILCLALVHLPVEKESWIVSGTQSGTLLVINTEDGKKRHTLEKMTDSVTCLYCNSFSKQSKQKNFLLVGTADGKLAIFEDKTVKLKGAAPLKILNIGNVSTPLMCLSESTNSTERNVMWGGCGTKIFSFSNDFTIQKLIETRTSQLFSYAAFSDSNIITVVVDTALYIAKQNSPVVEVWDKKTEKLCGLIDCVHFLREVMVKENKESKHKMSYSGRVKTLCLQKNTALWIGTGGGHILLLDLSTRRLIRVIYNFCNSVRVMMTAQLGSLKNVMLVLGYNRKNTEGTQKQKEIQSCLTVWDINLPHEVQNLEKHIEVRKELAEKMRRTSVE
Text: (§1) Exemplary Assay for Testing LRRK2 Degradation Driven by Exemplary Hetero-Bifunctional Compounds Designed to Target LRRK2
(§2) The assay measures the degradation of wildtype and G2019S LRRK2 tagged with a HiBit tag on the C-terminus of the protein that was expressed from a mammalian expression vector, driven by the ubiquitin promoter in HEK293 cells. Each compound dose-response was repeated on two separate days, on three separate plates each day.
(§3) Plasmid Preparation. Transfection mixes were assembled as follows and incubated for 30 minutes at room temperature. In a 15 mL tube, 5.25 mL Opti-MEM (no additions) was mixed with 17 μL Firefly Luciferase plasmid at 1 μg/μL and 158 μL WT plasmid DNA at 1 μg/μL (175 μg total DNA) were mixed by flicking. In a new 15 mL tube, 5.25 mL OptiMEM was mixed with 17 μL Firefly Luciferase plasmid at 1 μg/μL and 158 μL G2019S plasmid DNA at 1 μg/μL (175 μg total DNA) were mixed by flicking. X-tremeGene HP was mixed thoroughly using a vortex. Next, 175 μL was added to each tube and flicked to mix. Both tubes were left to incubate for 30 minutes at room temperature.
(§4) While the transfection mixes were incubating, HEK293 cells (acquired from ATCC; ATCC CRL-1573) were harvested with trypsin. Once cells are detached, the cells were resuspended in 12 mL OptiMEM+5% FBS and transferred to a 50 mL tube. The cells were mixed well and counted. Using OptiMEM+5% FBS, the cells were diluted in two 250 mL conical tubes at 0.71×10^6 cells/mL in 70 mL. One tube was labeled “WT” and the other “G2019S”. The WT and G2019S transfection mixes were added dropwise to the corresponding 250 mL tubes. The tubes were mixed first by pipetting then by swirling. The tubes were incubated at room temperature for at least 5 minutes.
(§5) Each tube was swirled before dispensing and after every three plates. Seventy microliters of cells were dispensed with WT or G2019S DNA to seven plates each. Three plates of each were tested with compound plate one (preparation described below) and three plates of each were tested with compound plate two (preparation described below). The first plate from each set served as a “prime” plate and was not used to test compounds. Each plate was incubated in the hood for 10 minutes before placing in the 37° C. incubator for 24 hours.
(§6) Preparation of Compound and Assay Plates. Two compound plates were made using 96 well polypropylene plates. Compounds were made up at 10 mM and were diluted to 1 mM in 30 μL. Each dose response curve included a well of DMSO, as a negative control and for normalization, and a well of 0.5 μM of Compound 4 as a positive control. In addition to seven test compounds, each plate also included a dose response of Compound 4. The compound plates were spun down along at 1200 rpm for 2 minutes.
(§7) The two compound plates were then mixed and 2 μL was diluted in intermediate plates having 248 μL of Opti-Mem in each well. Next, 10 μL diluted compounds from the intermediate plates were added to each test plate (three WT and three G2019S plates per compound plate for a total of 12 assay plates). The plates were incubated for 24 hours at 37° C.
(§8) All assay plates and all Nano-Glo Dual-Luciferase Reporter Assay System components (except for the DLR substrate) were equilibrated to room temperature. Next, the luciferase buffer was mixed with the lyophilized amber bottle until fully dissolved, and 75 μL of the luciferase mixture was added to each well of each assay plate. The assay plates were incubated for 10 minutes at room temperature with shaking for at least 5 minutes, and then read on a plate reader.
(§9) Developing Plates and Analyzing Data. One milliliter of DLR substrate and 1 mL LgBiT Protein were added to the Stop and Glo buffer, and 75 μL of the mixture was added to each well of each plate. Optically clear seals were added to each plate and each plate was incubated for 20 minutes with shaking for at least 10 minutes, and then read on a plate reader. […]

G2019S LRRK2 = molecular target: T2, G2019S LRRK2 (Homo sapiens, UniProt Q5S007, G2019S); assay: LRRK2 degradation assay, HiBit-tagged G2019S LRRK2 expressed from plasmid in HEK293 cells (Nano-Glo Dual-Luciferase); format: cell-based; conditions: 24 hours
T2 construct: expressed in transfected cells; host or cells: HEK293 (ATCC CRL-1573), transient transfection, mammalian expression vector with ubiquitin promoter
T2 sequence (Q5S007 whole entry G2019S): as the sequence (Q5S007 whole entry) above, with G2019S counted along it
Text: as §1, §2, §3, §4, §5, §6, §7, §8, §9

[1] = HiBit-tagged wildtype LRRK2, HEK293 cells
[2] = HiBit-tagged G2019S LRRK2, HEK293 cells
[3] = HiBit-tagged wildtype LRRK2 in HEK293 cells
[4] = HiBit-tagged G2019S LRRK2 in HEK293 cells

| SMILES | Dmax (wildtype LRRK2; [1]) [%] | DC50 (wildtype LRRK2; [1]) [nM] | DC50 (G2019S LRRK2; [2]) [nM] | Dmax (G2019S LRRK2; [2]) [%] | Dmax (wildtype LRRK2; [3]) [%] | DC50 (wildtype LRRK2; [3]) [nM] | DC50 (G2019S LRRK2; [4]) [nM] | Dmax (G2019S LRRK2; [4]) [%] |
| --- | --- | --- | --- | --- | --- | --- | --- | --- |
| CC1(Oc2ccc3[nH]nc(-c4ccnc(N5CC6(CN(CC7CCN(CC8CCN(c9ccc%10c(c9)C(=O)N(C9CCC(=O)NC9=O)C%10=O)CC8)CC7)C6)C5)c4)c3c2)CC1 (stereo not drawn) [Compound 161, 2-(2,6-dioxo-3-piperidyl)-5-[4-[[4-[[2-[4-[5-(1-methylcyclopropoxy)-1H-indazol-3-yl]-2-pyridyl]-2,6-diazaspiro[3.3]heptan-6-yl]methyl]-1-piperidyl]methyl]-1-piperidyl]isoindoline-1,3-dione] | 50 to 70 | 10 to 50 | 10 to 50 | 50 to 70 |  |  |  |  |
| C[C@H]1CN(c2cc(-c3n[nH]c4ccc(OC5(C)CC5)cc34)ncn2)CCN1CCC1CCN(CC2CCN(c3cccc4c3C(=O)N(C3CCC(=O)NC3=O)C4=O)CC2)CC1 (stereo partly drawn) [Compound 138, 2-(2,6-dioxo-3-piperidyl)-4-[4-[[4-[2-[(2S)-2-methyl-4-[6-[5-(1-methylcyclopropoxy)-2H-indazol-3-yl]pyrimidin-4-yl]piperazin-1-yl]ethyl]-1-piperidyl]methyl]-1-piperidyl]isoindoline-1,3-dione] |  |  |  |  | ≥ 70 | 10 to 50 | < 10 | ≥ 70 |
| CC1(Oc2ccc3[nH]nc(-c4cc(N5CCC(O[C@H]6CCN(CC7CCN(c8ccc9c(c8)C(=O)N(C8CCC(=O)NC8=O)C9=O)CC7)C6)CC5)ncn4)c3c2)CC1 (stereo partly drawn) [Compound 117, 2-(2,6-dioxopiperidin-3-yl)-5-(4-{[(3S)-3-[(1-{6-[5-(1-methylcyclopropoxy)-1H-indazol-3-yl]pyrimidin-4-yl}piperidin-4-yl)oxy]pyrrolidin-1-yl]methyl}piperidin-1-yl)-2,3-dihydro-1H-isoindole-1,3-dione] |  |  |  |  | < 50 | < 10 | < 10 | < 50 |
| CC1(Oc2ccc3[nH]nc(-c4ccnc(N5CCOC6(CN(CC7CCN(CC8CCN(c9ccc%10c(c9)C(=O)N(C9CCC(=O)NC9=O)C%10=O)CC8)CC7)C6)C5)c4)c3c2)CC1 (stereo not drawn) [Compound 151, 2-(2,6-dioxo-3-piperidyl)-5-[4-[[4-[[8-[4-[5-(1-methylcyclopropoxy)-1H-indazol-3-yl]-2-pyridyl]-5-oxa-2,8-diazaspiro[3.5]nonan-2-yl]methyl]-1-piperidyl]methyl]-1-piperidyl]isoindoline-1,3-dione] |  |  |  |  | 50 to 70 | < 10 | < 10 | 50 to 70 |
| C[C@H]1CN(c2cc(-c3n[nH]c4ccc(OC5(C)CC5)cc34)ncn2)CCN1CC1CCN(CC2(F)CCN(c3ccc4c(c3)C(=O)N(C3CCC(=O)NC3=O)C4=O)CC2)CC1 (stereo partly drawn) [Compound 70, 2-(2,6-dioxo-3-piperidyl)-5-[4-fluoro-4-[[4-[[(2S)-2-methyl-4-[6-[5-(1-methylcyclopropoxy)-1H-indazol-3-yl]pyrimidin-4-yl]piperazin-1-yl]methyl]-1-piperidyl]methyl]-1-piperidyl]isoindoline-1,3-dione] |  |  |  |  | < 50 | < 10 | < 10 | < 50 |
| CC1(Oc2ccc3[nH]nc(-c4ccnc(N5CCC(CC6CCN(C(=O)C7CCN(c8ccc9c(c8)C(=O)N(C8CCC(=O)NC8=O)C9=O)CC7)CC6)CC5)c4)c3c2)CC1 (stereo not drawn) [Compound 93, 2-(2,6-dioxopiperidin-3-yl)-5-(4-{4-[(1-{4-[5-(1-methylcyclopropoxy)-1H-indazol-3-yl]pyridin-2-yl}piperidin-4-yl)methyl]piperidine-1-carbonyl}piperidin-1-yl)-2,3-dihydro-1H-isoindole-1,3-dione] |  |  |  |  | 50 to 70 | 10 to 50 | 10 to 50 | < 50 |
| CC1(Oc2ccc3[nH]nc(-c4cc(N5CC[C@H](CN6CCN(CC7CCN(c8ccc9c(c8)C(=O)N(C8CCC(=O)NC8=O)C9=O)CC7)CC6)C5)ncn4)c3c2)CC1 (stereo partly drawn) [Compound 166, 2-(2,6-dioxo-3-piperidyl)-5-[4-[[4-[[(3R)-1-[6-[5-(1-methylcyclopropoxy)-1H-indazol-3-yl]pyrimidin-4-yl]pyrrolidin-3-yl]methyl]piperazin-1-yl]methyl]-1-piperidyl]isoindoline-1,3-dione] | < 50 | < 10 | < 10 | < 50 |  |  |  |  |
| CC1(Oc2ccc3[nH]nc(-c4ccnc(N5CCC(O[C@H]6CC[C@H](OC7CCN(c8ccc9c(c8)C(=O)N(C8CCC(=O)NC8=O)C9=O)CC7)CC6)CC5)c4)c3c2)CC1 (stereo partly drawn) [Compound 100, 2-(2,6-dioxopiperidin-3-yl)-5-(4-{[(1r,4r)-4-[(1-{4-[5-(1-methylcyclopropoxy)-1H-indazol-3-yl]pyridin-2-yl}piperidin-4-yl)oxy]cyclohexyl]oxy}piperidin-1-yl)-2,3-dihydro-1H-isoindole-1,3-dione] |  |  |  |  | < 50 | 10 to 50 | 10 to 50 | 50 to 70 |
| CC1(Oc2ccc3[nH]nc(-c4ccnc(N5CCN(CC6(F)CCN(CC7CCN(c8ccc9c(c8)C(=O)N(C8CCC(=O)NC8=O)C9=O)CC7)CC6)CC5)c4)c3c2)CC1 (stereo not drawn) [Compound 80, 2-(2,6-dioxo-3-piperidyl)-5-[4-[[4-fluoro-4-[[4-[4-[5-(1-methylcyclopropoxy)-1H-indazol-3-yl]-2-pyridyl]piperazin-1-yl]methyl]-1-piperidyl]methyl]-1-piperidyl]isoindoline-1,3-dione] |  |  |  |  | < 50 | < 10 | < 10 | 50 to 70 |
| CC1(Oc2ccc3[nH]nc(-c4cc(N5CCC(CN6CC[C@H](OC7CCN(c8ccc9c(c8)C(=O)N(C8CCC(=O)NC8=O)C9=O)CC7)C6)CC5)ncn4)c3c2)CC1 (stereo partly drawn) [Compound 118, 2-(2,6-dioxo-3-piperidyl)-5-[4-[(3S)-1-[[1-[6-[5-(1-methylcyclopropoxy)-1H-indazol-3-yl]pyrimidin-4-yl]-4-piperidyl]methyl]pyrrolidin-3-yl]oxy-1-piperidyl]isoindoline-1,3-dione] |  |  |  |  | 50 to 70 | 10 to 50 | 10 to 50 | < 50 |
| CC1(Oc2ccc3[nH]nc(-c4cc(N5CCN(C[C@H]6CN(CC7CCN(c8ccc9c(c8)C(=O)N(C8CCC(=O)NC8=O)C9=O)CC7)CCO6)CC5)ncn4)c3c2)CC1 (stereo partly drawn) [Compound 157, 2-(2,6-dioxopiperidin-3-yl)-5-(4-{[(2S)-2-[(4-{6-[5-(1-methylcyclopropoxy)-1H-indazol-3-yl]pyrimidin-4-yl}piperazin-1-yl)methyl]morpholin-4-yl]methyl}piperidin-1-yl)-2,3-dihydro-1H-isoindole-1,3-dione] | 50 to 70 | < 10 | < 10 | ≥ 70 |  |  |  |  |
| CC1(Oc2ccc3[nH]nc(-c4cc(N5CCN(CC6(F)CCN(CC7CCN(c8ccc9c(c8)CN(C8CCC(=O)NC8=O)C9=O)CC7)CC6)CC5)ncn4)c3c2)CC1 (stereo not drawn) [Compound 110, 3-[5-[4-[[4-fluoro-4-[[4-[6-[5-(1-methylcyclopropoxy)-1H-indazol-3-yl]pyrimidin-4-yl]piperazin-1-yl]methyl]-1-piperidyl]methyl]-1-piperidyl]-1-oxo-isoindolin-2-yl]piperidine-2,6-dione] |  |  |  |  | 50 to 70 | < 10 | < 10 | 50 to 70 |
